The numbers were not newly measured in US8496977B2, “Natural extract from whole banana fruit (Musa Spp)” (priority 2009, dated 2013), which cites them from elsewhere.

Data set [1] relates to eicosanoid synthesis. As to conditions: by modulating eicosanoid synthesis.

Turning to `NCCc1ccc(O)c(O)c1` [dopamine], the “protection against intestinal mucosal injury” value in data set [1] is “protect against intestinal mucosal injury”. Moreover, the radical-scavenging rate result (compared with catechin and gallocatechin gallate) is recorded as “faster radical-scavenging rate than catechin”. The antioxidative potency entry (compared with other antioxidants) was “greater than that of BHA, BHT, flavonoids, glutathione, and catechin”.
